Measured values published in PubChem BioAssay AID489024 (Sanford-Burnham Center for Chemical Genomics, 2010).
The source made the active and inactive calls.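 How the source made its calls: active means compounds whose mean EC50, the dose giving half the maximal reporter activation, is at or below a set limit; inactive means the rest.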

These compounds were tested against CHO-CHOP luciferase reporter, UPR activation, luminescence (assay: activators of PERK-eIF2a-CHOP UPR arm, confirmation, CHO-CHOP cells, luciferase luminescence (AID 489024);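 further: compounds added alone to reporter cells with no tunicamycin stress co-treatment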).
With Cc1cccc(C)c1NC(=O)C(Cl)C(=O)c1ccccc1 (configuration not stated) the EC50 was 19.3 µM. With C=CCN=c1scc(C)n1/N=C/c1ccc(O)c(O)c1 the EC50 was 3.01 µM. With CCc1nnc(NC(=O)CSc2nc(-c3ccccc3)cc(-c3ccc(OC)cc3)c2C#N)s1 the EC50 was 13 µM. With CCOc1ccc(N2C(=O)/C(=C\c3cccs3)C(=O)NC2=S)cc1 the EC50 was 8.68 µM. With Cc1ccc(Sc2nc(-c3ccccc3)nnc2C(F)(F)F)cc1 the EC50 was > 80 µM (inactive). Compound Oc1ccc(/C=N/Nc2cc(N3CCCC3)nc(N3CCCC3)n2)cc1O has an EC50 of 13.2 µM. With O=C(O)CC1CCC(=C(Cl)Cl)C1 (configuration not stated) the EC50 was > 80 µM (inactive). In the case of Cc1cc(C)cc(NC(=O)/C(C#N)=C/c2cn(CC(=O)NCc3ccco3)c3ccccc23)c1, the EC50 is reported as 7.54 µM. Work on Oc1ccc(/C=N/Nc2ncnc3c2ncn3Cc2ccccc2)cc1O yielded an EC50 of 13.1 µM. Compound O=C(NC1CCCC1)C(c1ccc(F)cc1)N(Cc1ccc(Cl)cc1)C(=O)CCl (configuration not stated) has an EC50 of 7.8 µM. With O=C(/C=C/Sc1ccc(C(F)(F)F)cn1)c1ccccc1 the EC50 was 7.85 µM. For O=C1NN(c2cccc(Br)c2)C(=O)/C1=C/c1cccs1, the EC50 was “inactive”. With COc1ccc(N2CCN(Cc3cc(=O)oc4cc(-c5ccccc5)c(O)cc34)CC2)cc1 the EC50 was > 80 µM (inactive). CCSC1(SCC)N=C(N)C2(C#N)C(c3ccc(OC)c(OC)c3OC)C12C#N (configuration not stated) gave an EC50 of 14.7 µM. In the case of Cc1ccc(C(C)C)c(OCc2ccc(C(=O)N/N=C/c3ccc(O)c(O)c3)cc2)c1, the EC50 is reported as > 80 µM (inactive). With COc1ccc(-c2csc3nc(-c4ccc(C)cc4)oc(=O)c23)cc1OC the EC50 was > 80 µM (inactive). Work on COc1ccc(NC(=O)c2nc(S(=O)(=O)Cc3cccc(C)c3)ncc2Cl)c(OC)c1 yielded an EC50 of 11.5 µM. Cc1nn(-c2ccccc2)c(C)c1/C=N/NC(=O)CSc1nc2ccccc2c(=O)n1-c1ccc(Br)cc1 showed an EC50 of 9.85 µM. Work on CS(=O)(=O)c1nc(-c2ccccc2)cc(-c2ccccc2)c1C#N yielded an EC50 of 15.3 µM. Compound O=C(Nc1ccc(-c2nc3ncccc3o2)cc1)c1ccc([N+](=O)[O-])o1 has an EC50 of 1.08 µM. CN1CCN(Cc2cc(COCc3ccccc3)c3cccnc3c2O)CC1 was tested, and the EC50 was 12.8 µM. Work on CCc1ccc(N2C(=O)NC(=O)/C(=C\C=C\c3ccco3)C2=O)cc1 yielded an EC50 of 7.33 µM. For COc1cc(CN2CCN(c3cc(C)ccc3C)CC2)ccc1O, the EC50 was 11.7 µM. Compound O=C(Nc1nccs1)c1cccc(N2C(=O)c3cccc4c([N+](=O)[O-])ccc(c34)C2=O)c1 has an EC50 of 11.5 µM. In the case of CCN1CSC(=S)N(Cc2ccccc2)C1, the EC50 is reported as 8.48 µM. In the case of O=C1Nc2ccccc2/C1=C/C(=O)c1cccs1, the EC50 is reported as 14.4 µM. For CCc1ccc2nc(N(CCCN(C)C)C(=O)c3ccc(S(=O)(=O)N(C)C4CCCCC4)cc3)sc2c1, the EC50 was 10.6 µM. In the case of S=C(Nc1ccccn1)c1ccccn1, the EC50 is reported as 10.4 µM. For CC(C)c1cccc(-c2ccc3c(c2)S(=O)(=O)c2cccc(C(=O)NCc4ccccc4Cl)c2C3=O)c1, the EC50 was 4.51 µM. Compound O=C1NC(=O)N(CCc2ccc(F)cc2)C(=O)/C1=C/C=C/c1ccccc1 has an EC50 of 4.74 µM. CC(=O)Nc1ccc(N=Cc2c(O)c(C(=O)Nc3ccccc3)cc3ccccc23)cc1 was tested, and the EC50 was “inactive”. CCOC(=O)C(=CNc1nc(-c2ccccc2)c(C(=O)Nc2ccc(-c3ccccc3)cc2)s1)C(=O)OCC was tested, and the EC50 was “inactive”. CC(=O)Oc1ccc(OC(C)=O)c(SCCCCCN2CCOCC2)c1 was tested, and the EC50 was 16.1 µM. For Oc1ccc(/C=N/N(c2ccccc2)c2ccccc2)cc1O, the EC50 was “inactive”. O=C(CSc1cccc2cccnc12)N/N=C/c1cccnc1 showed an EC50 of 7.64 µM. In the case of COc1cc(CNc2ccc3[nH]c(=O)[nH]c3c2)cc(Br)c1OCc1ccccc1F, the EC50 is reported as > 80 µM (inactive). CC1CCN(Cc2c(C(=O)N/N=C/c3ccc(C(C)(C)C)cc3)nnn2-c2nonc2N)CC1 was tested, and the EC50 was 8.4 µM. Compound CCN(CC)S(=O)(=O)c1cc(NC(=O)Cn2ncc(Cl)c(Cl)c2=O)ccc1C has an EC50 of 8.03 µM. With CC1=NOC(=O)/C1=C\c1ccc(-c2cccc(Cl)c2)o1 the EC50 was 13.1 µM. In the case of Cc1ccc(S/C=C\C(=O)c2ccccc2)cc1, the EC50 is reported as > 80 µM (inactive). Oc1c(Cl)cc(CN2CCOCC2)c2cccnc12 was tested, and the EC50 was 5.93 µM. For COc1ccccc1C(=O)NC(=S)NNC(=O)c1sc2ccccc2c1Cl, the EC50 was “inactive”. Cc1nn(Cc2c(Cl)cccc2Cl)c(C)c1NC(=O)c1sc2ccccc2c1Cl was tested, and the EC50 was “inactive”. For COC(=O)Oc1ccc(/C=C/C(=O)OC(C)C)cc1OC(=O)OC, the EC50 was 14 µM. O=C(c1ccc(Cl)cc1)C(CN1CCCC1)c1ccccc1 (configuration not stated) gave an EC50 of 14.3 µM. For CCCCCCCC(=O)Nc1ccc(C(=O)N/N=C/c2cccc([N+](=O)[O-])c2)cc1, the EC50 was “inactive”. For Oc1cc(-c2ccncc2)cc2cccnc12, the EC50 was > 80 µM (inactive).
